Where two headings read alike, the source gives them in different places.
Columns and labels:
W2 = assay: Cross-resistance EC50 assay, W2 parent; assay type: cell-based, Plasmodium falciparum; conditions: Plasmodium falciparum, 48 h, read-out: W2F6 (PARENT) Average EC50
Source text: (§1) Multidrug resistance alleles, including mutations in P. falciparum chloroquine resistance transporter (pfcrt) and P. falciparum multi-drug resistance transporter 1 (pfmdr1) are very common in field isolates. Therefore, we sought to assess the degree to which pre-existing resistance alleles would contribute to a loss of potency for this diverse collection of small molecule compounds. Fifteen clones derived from three main parent lines were chosen to maximize diversity in mutated pathways and genetic backgrounds, thus representing the variety of resistance seen in the field: 3D7 (ref. [23]), W2 (ref. [24]) or Dd2 (ref. [25]). The 3D7 line originates from the clone of a Netherlands clinical isolate strain[23][26] and is generally considered to be drug sensitive, though it does convey resistance to sulfadoxine. Conversely, W2 (ref. [24], [27]) and Dd2 (ref. [25]) are multi-drug-resistant lines originating from the Indochina III/CDC isolate, which contain point mutations in pfcrt as well as amplifications in pfmdr1 and GTP cyclohydrolase.
(§2) To evaluate potential overlapping activity against known antimalarial drug targets, we performed dose-response studies with each compound against our assembled set of drug-resistant lines and their corresponding parents, in an asexual blood stage proliferation assay (Table 1). Comparisons were made to the drug-sensitive strain 3D7 when a parent was unavailable (TM90C2A, W2 and Dd2). As laboratories conducted EC50 assays with different strains and protocols, all comparisons were made between assays from the same laboratory and under the same assay conditions. Compounds displaying >5-fold EC50 shifts relative to the parent or sensitive strain were flagged as having potentially non-novel targets. Average fold shifts per strain ranged from 0.82 to 2.34, with a median of 1.23 indicating there was not common resistance to any one resistant clone. No resistance patterns were observed when classifying the compounds based on chemical structure, but this was not surprising given the diversity of compounds chosen. On the other hand, given that these confirmed compounds were derived from larger unconfirmed hit lists to which some filtration criteria may have been applied (for example, elimination of obvious dihydrofolate reductase inhibitors[32]), some[10][11][12][13] pre-existing bias may exist in the set.
(§3) The 48-h assay was carried out in a 96-well format following standard methods using the ^3H-hypoxanthine incorporation assay. The raw EC50 values corresponding to this assay can be found in Supplementary Data 3. Briefly, this assay relies on the parasite incorporation of labelled hypoxanthine that is proportional to P. falciparum growth. A culture of parasitized RBCs (0.5% parasitemia with a percentage of ring stage higher than 70% of total parasitemia, 2.0% haematocrit) in RPMI-1640, […] and 5 μM hypoxanthine was exposed to drug serial dilutions. Plates were incubated for 24 h at 37 °C, 5% CO2, 5% O2 and 90% N2. After 24 h of incubation, ^3H-hypoxanthine was added and plates were incubated for an additional 24-h period. After that, parasites were harvested on a glass fibre filter using a TOMTEC Cell Harvester 96. Filters were dried and melt-on scintillator sheets were used to determine the incorporation of ^3H-hypoxanthine. Radioactivity was measured using a microbeta counter. Data were normalized using the incorporation of the positive (parasitized RBCs without drug) and negative (same culture with artesunate at 2 μM) controls. All assays were conducted in triplicate using three independently grown cultures, and EC50 values were determined using the XLfit add-in module for Excel (version 2.3.1) from Grafit (version 5.3.1.3), where parameter h is the assay hill slope, x is the compound concentration and y is the inhibition of growth effect. The XLfit equation is: […]
Alternatively, a SYBR Green-based proliferation approach was used for the 72-h assay, as previously described. […]

[1] = test system: CYTb-G131S (cytb G131S, parent Dd2); assay: Cross-resistance EC50 assay, CYTb-G131S; assay type: cell-based, Plasmodium falciparum; conditions: Plasmodium falciparum; SYBR green 72 hour assay; synchronized parasites; 384-well format; strain CYTb:G131S (Dd2 parent)
Source text: as §2, with “set. […]” for “set.”
(§4) Alternatively, a SYBR Green-based proliferation approach was used for the 72-h assay, as previously described. Briefly, a culture of either synchronized or asynchronous parasitized RBCs (0.3% parasitemia and 4% haematocrit) in screening medium (identical to supplemented medium above except no serum was added) was exposed to serial drug dilutions. Plates were incubated at 37 °C and gassed with 93% N2, 4% CO2 and 3% O2 for 72 h. Following incubation, 10 × SYBR Green I (Invitrogen; supplied in 10,000 × concentration) in lysis buffer ([…], 5 mM EDTA, 0.16% Saponin wt per vol and 1.6% Triton X vol per vol) was added to the wells and the plates were incubated overnight at room temperature before plate reading. EC50 assays were repeated three times, taking the average EC50 value from each assay set, and removing any outliers using a single iteration of Grubbs' test, eliminating values with z-scores above the critical z-value (α=0.05). The raw EC50 values for synchronized parasites assayed in a 384-well format are listed in Supplementary Data 4. The raw EC50 values for asynchronous parasites assayed in a 96 or 1536-well format are listed in Supplementary Data 5.
(§5) EC50 values for each strain were compared with those of the corresponding parent strain to determine fold-shift changes and identify resistance. To minimize the cause variance between assays, all comparisons were conducted between strains assayed under identical conditions. A one-way ANOVA followed by a Dunnet's post-test was conducted in GraphPad Prism to identify significant changes between the parent and resistant strain.

[2] = test system: DHODH (E182D, parent 3D7); assay: Cross-resistance EC50 assay, DHODH; assay type: cell-based; conditions: Plasmodium falciparum; SYBR green 72 hour assay; synchronized parasites; 384-well format; strain DHODH (3D7 parent)
Source text: as §2, with “set. […]” for “set.”
as §4, §5

hsp90 (D88Y, parent Dd2) = assay: Cross-resistance EC50 assay, hsp90; assay type: cell-based; conditions: Plasmodium falciparum; SYBR green 72 hour assay; synchronized parasites; 384-well format; strain HSP90 (Dd2 parent)
Source text: as §2, with “set. […]” for “set.”
as §4, §5

P. falciparum strain 3D7 = assay: Asexual blood stage 3H-hypoxanthine incorporation assay, 3D7; assay type: cell-based, Plasmodium falciparum
Experimental: as §3

Dd2 = assay: Cross-resistance EC50 assay, Dd2 parent; assay type: cell-based, Plasmodium falciparum; conditions: Plasmodium falciparum, DD2, 72 h
Source text: as §1
as §2, with “set. […]” for “set.”
as §4, §5

[3] = Plasmodium falciparum, 3D7, asexual stage, P. falciparum 3D7, read-out: 3D7 EC50
[4] = read-out: Dd2 (PARENT) Average EC50
[5] = read-out: Dd2 (PARENT) EC50 (µM) Average EC50

SMILES	EC50 (W2)	EC50 [1]	EC50 [2]	EC50 (hsp90 (D88Y, parent Dd2))	EC50 (P. falciparum strain 3D7; [3])	EC50 (P. falciparum strain 3D7; asexual stage, P. falciparum 3D7, read-out: 3D7 EC50)	EC50 (Dd2; [4])	EC50 (Dd2; [5])	EC50 (P. falciparum strain 3D7; Plasmodium falciparum, 3D7, read-out: 3D7 EC50)	EC50 (P. falciparum strain 3D7; Plasmodium falciparum, 3D7, text value, read-out: asexual stage EC50)
COc1ccccc1CNC(=O)CCn1c(=O)[nH]c2ccsc2c1=O [MMV019066]	1270 nM	149 nM	53 nM	15 nM	1670 nM	1670 nM	0.054 µM	0.00951 µM	–	–
Cl.c1ccc2c(NCCCCCCNc3c4c(nc5ccccc35)CCCC4)c3c(nc2c1)CCCC3 [MMV019555]	491 nM	237 nM	56 nM	198 nM	–	–	0.236 µM	0.241 µM	87.3 nM	–
COc1ccc(N2CCN(C(CNC(=O)C3CCCCC3)c3ccc4c(c3)OCO4)CC2)cc1 (centres unmarked) [MMV019662]	428 nM	583 nM	860 nM	790 nM	340 nM	–	0.357 µM	0.242 µM	–	–
COc1ccc(-c2nc(NC(=O)Cc3ccc4c(c3)OCCO4)sc2C)cc1 [MMV019719]	143 nM	261 nM	180 nM	281 nM	164 nM	–	0.26 µM	0.277 µM	–	–
Cc1ccc(Oc2ncccc2C(=O)Cc2cccc3cccnc23)c(C)c1 [MMV020746]	247 nM	327 nM	122 nM	200 nM	76 nM	–	0.241 µM	1.86 µM	–	–
COc1cc(-c2nc(-c3ccccc3)c(-c3ccccc3)[nH]2)cc(OC)c1O [MMV020750]	1870 nM	872 nM	509 nM	700 nM	342 nM	–	0.678 µM	0.773 µM	–	–
CCCCCCCN(Cc1ccc(OC(C)(C)C(=O)OCC)cc1)C(=O)Nc1ccc(Cl)cc1OCC [MMV021735]	361 nM	498 nM	460 nM	275 nM	383 nM	–	0.258 µM	1.29 µM	–	–
CN(C)Cc1ccc(-c2cc3c(-c4ccc(CN(C)C)cc4)ccnc3[nH]2)cc1.O=C(O)C(F)(F)F [MMV022224]	406 nM	343 nM	321 nM	346 nM	388 nM	–	0.41 µM	0.302 µM	–	–
Nc1ncc(-c2cn[nH]c2)cc1-c1nc2ccc(F)cc2[nH]1 [MMV023367]	244 nM	710 nM	414 nM	491 nM	302 nM	–	0.654 µM	1.96 µM	–	–
CN(C)S(=O)(=O)c1cc(-c2ccc3nccc(-c4cccc(S(N)(=O)=O)c4)c3c2)cnc1N [MMV024038]	327 nM	249 nM	216 nM	128 nM	–	–	0.106 µM	0.509 µM	–	228 nM
Cc1ccc(S(=O)(=O)n2cc(-c3ccnc(N)c3)c3cc(Br)cnc32)cc1 [MMV024114]	1050 nM	1680 nM	395 nM	831 nM	265 nM	–	0.766 µM	1.64 µM	–	–
CNCc1ccc2nc(-c3coc(Cc4cc(Cl)ccc4OCC(C)C)n3)[nH]c2c1.Cl.Cl [MMV026596]	645 nM	443 nM	392 nM	373 nM	346 nM	–	0.347 µM	0.158 µM	–	–
COc1cc(-c2nc(-c3ccccc3)c(-c3ccccc3)[nH]2)ccc1OCCN(C)C [MMV027496]	272 nM	322 nM	128 nM	312 nM	111 nM	–	0.304 µM	0.74 µM	–	–
Cc1nc2ccc3ccc(CNc4ccc(C(=O)CC(CCC(=O)O)C(=O)O)cc4)cc3c2c(=O)[nH]1.Cl (centres unmarked) [MMV027634]	62 nM	52 nM	33 nM	39 nM	23 nM	–	0.035 µM	0.124 µM	–	–
CC(C)c1cccc(C(NC(=O)C2Cc3ccccc3CN2C(=O)c2cccc(N3CCOCC3)c2)C2CCCC2)c1 (centres unmarked) [MMV028038]	489 nM	461 nM	1270 nM	432 nM	540 nM	–	0.299 µM	0.622 µM	–	–
O=C(NCC(CCCN1CCC(c2c[nH]c3ccccc23)CC1)c1ccccc1)Nc1ccc(Cl)c(Cl)c1 (centres unmarked) [MMV029272]	836 nM	920 nM	148 nM	710 nM	136 nM	–	0.824 µM	0.285 µM	–	–
CC(C)(C)OC(=O)N1CCN(c2ccccc2NC(=O)c2cccc(C(F)(F)F)c2Oc2ccc(F)cc2)CC1 [MMV030666]	298 nM	389 nM	392 nM	321 nM	486 nM	–	0.374 µM	0.255 µM	–	–
CC(NCc1ccccc1)c1cc(Cl)ccc1O (centres unmarked) [MMV665789]	147 nM	922 nM	728 nM	557 nM	1250 nM	–	0.482 µM	0.333 µM	–	–
FC(F)(F)c1cccc(Nc2nc3ccccc3nc2Nc2cccc(C(F)(F)F)c2)c1 [MMV665794]	181 nM	172 nM	187 nM	140 nM	100 nM	–	0.113 µM	0.199 µM	–	–
